Results: ChEMBL document CHEMBL4765439, “Identification of the subtype-selective Sirt5 inhibitor balsalazide through systematic SAR analysis and rationalization via theoretical investigations” (Eur J Med Chem, 2020)
One block for each compound: values may come before it. The source made the active and inactive calls. The calls are words filed in the database; no cut-off is given here.

Legend:
[1] = target: T1, NAD-dependent protein deacylase sirtuin-5, mitochondrial (Homo sapiens, UniProt Q9NXA8); assay: Inhibition of SIRT5 (unknown origin)
Target sequence in this assay (Q9NXA8 whole entry): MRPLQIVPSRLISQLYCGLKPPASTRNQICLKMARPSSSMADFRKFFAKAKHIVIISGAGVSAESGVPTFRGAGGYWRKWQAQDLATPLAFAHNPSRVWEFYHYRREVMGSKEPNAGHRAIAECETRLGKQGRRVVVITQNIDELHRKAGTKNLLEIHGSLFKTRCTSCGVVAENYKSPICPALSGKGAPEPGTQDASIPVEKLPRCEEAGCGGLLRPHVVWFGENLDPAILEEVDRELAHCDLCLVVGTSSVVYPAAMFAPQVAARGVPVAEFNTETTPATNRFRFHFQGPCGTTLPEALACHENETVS

[2] = target: T1, NAD-dependent protein deacylase sirtuin-5, mitochondrial; assay: Inhibition of recombinant human SIRT5 at 50 uM using flour de lys succinyl as substrate in presence of NAD+ by fluorometric assay relative to control
Target sequence in this assay (Q9NXA8 37-310 limits assumed): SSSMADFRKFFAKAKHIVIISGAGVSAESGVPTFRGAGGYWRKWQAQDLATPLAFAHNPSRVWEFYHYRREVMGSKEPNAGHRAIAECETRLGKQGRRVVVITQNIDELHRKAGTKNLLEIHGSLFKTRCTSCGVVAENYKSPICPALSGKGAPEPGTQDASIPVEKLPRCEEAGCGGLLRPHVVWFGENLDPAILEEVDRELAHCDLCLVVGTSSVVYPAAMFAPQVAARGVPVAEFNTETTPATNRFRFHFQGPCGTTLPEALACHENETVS

[3] = target: T2, NAD-dependent protein deacetylase sirtuin-1 (Homo sapiens) (UniProt Q96EB6); assay: (§1) Inhibition of recombinant human SIRT1 (133 to 747 residues) expressed in Escherichia coli BL21(DE3) at 50 uM using ZMAL as substrate incubated for 4 hrs in presence of NAD+ followed by incubation with trypsin for 20 mins by trypsin-coupled assay based homogenous fluorescence analysis relative to control; conditions: time 260.0 min
T2 sequence (whole entry): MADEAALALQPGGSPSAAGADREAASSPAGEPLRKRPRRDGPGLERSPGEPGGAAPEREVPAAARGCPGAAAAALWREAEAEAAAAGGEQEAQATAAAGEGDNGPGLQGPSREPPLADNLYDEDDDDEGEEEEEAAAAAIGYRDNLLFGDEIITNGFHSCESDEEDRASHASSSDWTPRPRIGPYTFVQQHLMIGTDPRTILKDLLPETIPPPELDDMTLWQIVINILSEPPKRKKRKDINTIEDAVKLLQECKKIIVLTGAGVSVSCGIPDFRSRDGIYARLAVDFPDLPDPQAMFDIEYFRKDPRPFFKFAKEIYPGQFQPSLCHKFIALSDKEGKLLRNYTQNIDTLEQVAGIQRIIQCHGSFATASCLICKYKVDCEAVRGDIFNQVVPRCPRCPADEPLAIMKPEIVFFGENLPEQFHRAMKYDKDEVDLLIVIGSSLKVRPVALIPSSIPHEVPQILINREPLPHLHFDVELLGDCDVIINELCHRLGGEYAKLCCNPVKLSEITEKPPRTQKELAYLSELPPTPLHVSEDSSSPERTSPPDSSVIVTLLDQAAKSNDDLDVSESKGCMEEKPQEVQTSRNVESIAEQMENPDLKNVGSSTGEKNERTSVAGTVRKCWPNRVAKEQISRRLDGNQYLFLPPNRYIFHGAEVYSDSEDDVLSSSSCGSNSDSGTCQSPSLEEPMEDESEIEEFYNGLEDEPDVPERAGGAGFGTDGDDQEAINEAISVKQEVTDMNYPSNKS

[4] = target: T3, NAD-dependent protein deacetylase sirtuin-2 (Homo sapiens) (UniProt Q8IXJ6); assay: as §1, with “SIRT2 (25” for “SIRT1 (133”, “389” for “747”; conditions: time 260.0 min
T3 sequence (whole entry): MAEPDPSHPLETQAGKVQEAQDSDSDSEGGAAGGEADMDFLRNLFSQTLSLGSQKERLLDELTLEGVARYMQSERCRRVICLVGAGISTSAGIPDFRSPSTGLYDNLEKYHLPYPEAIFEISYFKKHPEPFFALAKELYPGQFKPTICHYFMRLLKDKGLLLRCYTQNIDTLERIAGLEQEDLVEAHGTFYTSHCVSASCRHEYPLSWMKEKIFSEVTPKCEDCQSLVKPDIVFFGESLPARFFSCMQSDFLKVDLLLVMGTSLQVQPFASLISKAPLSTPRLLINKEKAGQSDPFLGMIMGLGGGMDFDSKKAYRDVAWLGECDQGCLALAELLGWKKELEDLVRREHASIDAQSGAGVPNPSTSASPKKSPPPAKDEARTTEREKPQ

[5] = target: T1, NAD-dependent protein deacylase sirtuin-5, mitochondrial; assay: Competitive inhibition of recombinant human SIRT5 assessed as substrate conversion at 50 uM using ZKsA as substrate in presence of increasing concentration of NAD+ by trypsin-coupled assay
Target sequence in this assay (Q9NXA8 37-310 limits assumed): as the sequence (Q9NXA8 37-310 limits assumed) above

[6] = target: T1, NAD-dependent protein deacylase sirtuin-5, mitochondrial; assay: Competitive inhibition of recombinant human SIRT5 assessed as substrate conversion at 50 uM using increasing concentration of ZKsA as substrate in presence of NAD+ by trypsin-coupled assay
Target sequence in this assay (Q9NXA8 37-310 limits assumed): as the sequence (Q9NXA8 37-310 limits assumed) above

[7] = target: T2, NAD-dependent protein deacetylase sirtuin-1 (Homo sapiens); assay: as §1, with “100” for “50”; conditions: time 260.0 min
[8] = target: T3, NAD-dependent protein deacetylase sirtuin-2 (Homo sapiens); assay: as §1, with “SIRT2 (25” for “SIRT1 (133”, “389” for “747”, “100” for “50”; conditions: time 260.0 min
[9] = target: T4, NAD-dependent protein deacetylase sirtuin-3, mitochondrial (Homo sapiens) (UniProt Q9NTG7); assay: as §1, with “SIRT3 (101” for “SIRT1 (133”, “399” for “747”, “100” for “50”; conditions: time 260.0 min
T4 sequence (whole entry): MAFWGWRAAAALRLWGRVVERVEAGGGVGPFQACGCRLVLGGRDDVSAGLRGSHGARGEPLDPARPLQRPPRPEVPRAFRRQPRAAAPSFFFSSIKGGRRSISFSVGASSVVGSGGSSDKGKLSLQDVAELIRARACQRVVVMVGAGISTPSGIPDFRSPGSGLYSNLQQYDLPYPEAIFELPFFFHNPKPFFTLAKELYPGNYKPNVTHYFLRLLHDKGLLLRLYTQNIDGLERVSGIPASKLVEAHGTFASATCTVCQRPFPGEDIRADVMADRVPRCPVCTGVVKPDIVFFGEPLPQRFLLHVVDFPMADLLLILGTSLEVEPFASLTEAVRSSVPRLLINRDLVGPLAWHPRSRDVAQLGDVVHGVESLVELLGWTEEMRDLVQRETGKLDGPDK

[10] = target: T1, NAD-dependent protein deacylase sirtuin-5, mitochondrial; assay: Inhibition of recombinant human SIRT5 using flour de lys succinyl as substrate in presence of NAD+ by fluorometric assay
Target sequence in this assay (Q9NXA8 whole entry): as the sequence (Q9NXA8 whole entry) above

SMILES: C=C1c2cccc(O)c2C(=O)C2=C(O)[C@]3(O)C(=O)C(C(N)=O)=C(O)[C@@H](N(C)C)[C@@H]3[C@@H](O)[C@H]12 [METHACYCLINE]
- IC50 [1]: 3.6 µM

SMILES: CC(C)(Sc1cc(C(C)(C)C)c(O)c(C(C)(C)C)c1)Sc1cc(C(C)(C)C)c(O)c(C(C)(C)C)c1 [PROBUCOL]
- IC50 [1]: 1.6 µM

SMILES: O=C(O)CCNC(=O)c1ccc(/N=N/c2ccc(O)cc2)cc1
- inhibition [2]: 73%
- inhibition [3]: < 10%
- inhibition [4]: 26%
- inhibition [5]: inactive
- inhibition [6]: inactive

SMILES: Cc1cc(C(C#N)c2ccc(Cl)cc2)c(Cl)cc1NC(=O)c1cc(I)cc(I)c1O (configuration not stated) [CLOSANTEL]
- IC50 [1]: 2.7 µM

SMILES: O=C(O)CCNC(=O)c1ccc(/N=N/c2cccc(C(=O)O)c2)cc1
- inhibition [2]: 63%
- inhibition [3]: < 10%
- inhibition [4]: 21%
- inhibition [7]: inactive
- inhibition [8]: < 25%
- inhibition [9]: inactive

SMILES: Cc1ccc(C(=O)Nc2ccc(S(=O)(=O)O)c3cc(S(=O)(=O)O)cc(S(=O)(=O)O)c23)cc1NC(=O)c1cccc(NC(=O)Nc2cccc(C(=O)Nc3cc(C(=O)Nc4ccc(S(=O)(=O)O)c5cc(S(=O)(=O)O)cc(S(=O)(=O)O)c45)ccc3C)c2)c1
- inhibition [2]: 53%
- inhibition [3]: 95%

SMILES: CC1=C2C(=COC(C)C2C)C(O)=C(C(=O)O)C1=O (configuration not stated)
- IC50 [1]: 90 µM

SMILES: O=C(O)CNC(=S)Nc1ccc(/N=N/c2ccc(O)c(C(=O)O)c2)cc1
- inhibition [2]: 24%

SMILES: C[C@]12CC[C@@H]3c4ccc(O)cc4C[C@@H](CCCCCCCCC[S+]([O-])CCCC(F)(F)C(F)(F)F)[C@H]3[C@@H]1CC[C@@H]2O (some centres not stated) [FULVESTRANT]
- IC50 [1]: 2.6 µM

SMILES: O=C(O)CCNC(=O)c1ccc(/N=N/c2ccccc2)cc1
- inhibition [2]: 62%
- inhibition [3]: < 10%
- inhibition [4]: 16%
- inhibition [7]: inactive
- inhibition [8]: < 25%
- inhibition [9]: inactive

SMILES: NC(=O)c1cccnc1
- inhibition [3]: 21%
- inhibition [4]: 65%

Next, values leading:

- inhibition [2]: 32%
SMILES: NC(=O)c1ccc(/N=N/c2ccc(O)c(C(=O)O)c2)cc1

- inhibition [2]: 54%
SMILES: O=C(O)CCCC(=O)c1ccc(/N=N/c2ccc(O)c(C(=O)O)c2)cc1

- inhibition [2]: 26%
SMILES: O=C(O)CCC(=O)Nc1ccc(/N=N/c2ccc(O)c(C(=O)O)c2)cc1

- inhibition [2]: 39%
SMILES: O=C(O)CCCC(O)c1ccc(/N=N/c2ccc(O)c(C(=O)O)c2)cc1 (configuration not stated)

- inhibition [2]: 33%
SMILES: O=C(O)CCOCc1ccc(/N=N/c2ccc(O)c(C(=O)O)c2)cc1

- inhibition [2]: 27%
SMILES: O=C(O)c1ccc(/N=N/c2ccc(O)c(C(=O)O)c2)cc1

- inhibition [2]: 27%
- inhibition [3]: < 10%
- inhibition [4]: 19%
- inhibition [5]: inactive
- inhibition [6]: inactive
SMILES: O=C(O)CCNCc1ccc(/N=N/c2ccc(O)c(C(=O)O)c2)cc1

- inhibition [2]: 32%
SMILES: O=C(O)CCCCc1ccc(/N=N/c2ccc(O)c(C(=O)O)c2)cc1

- IC50 [10]: 5.3 µM
- inhibition [2]: 83%
- inhibition [3]: < 10%
- inhibition [4]: 11%
- inhibition [5]: inactive
- inhibition [6]: inactive
- IC50 [1]: 3.9 µM
SMILES: O=C(O)CCNC(=O)c1ccc(/N=N/c2ccc(O)c(C(=O)O)c2)cc1 [BALSALAZIDE]

- inhibition [2]: 31%
SMILES: CCCNC(=O)c1ccc(/N=N/c2ccc(O)c(C(=O)O)c2)cc1
